Laboratory results from patent publication US9669078B2, “PD-L1 based immunotherapy” (Herlev Hospital, priority 2011, dated 2017).
“Also recorded” adds a separate entry of the source. Where two headings read alike, the source gives them in different places.

Assays:
[1] = test system: T2-cells; experiment: 51Cr-release cytotoxicity assay, T2-cells; format: cell-based
Protocol: Conventional ^51Cr-release assays for CTL-mediated cytotoxicity were carried out as described elsewhere (Andersen et al., 1999). Target cells were T2 with and without PDL101 (FIG. 3a) and the HLA-A2+ breast cancer cell line the breast cancer cell line MDA-MB-231 (FIG. 3b) (available at the American Type Culture Collection (ATCC)).
(§1) Conventional ^51Cr-release assays for CTL-mediated cytotoxicity were carried out as described in Andersen et al., J Immunol 1999. Target cells were T2-cells, HLA-A2^+ EBV transformed B-cell line (KIG-BCL), autologous matured DC (mDC), HLA-A2^+ melanoma cell lines (MM1312.07 and MM.909.06) with or without IFN-γ (100 U/ml) addition for 2 days. T2-cells and KIG-BCL were pulsed with PD-L1 recombinant protein (Sin θ Biological Inc.) for 3 hr. at 37° C. prior addition of chromium. Lysis of T2-cells was blocked using anti HLA-A2 FITC conjugated antibody (2 ug/100 ul, BD Biosciences).

[2] = test system: HLA-A2+ EBV transformed B-cell line (KIG-BCL); format: cell-based; conditions: 51Cr-release
Protocol: as §1

[3] = test system: PBMC; experiment: IFN-γ ELISPOT assay; format: cell-based, human; conditions: for specific T-cell responses, IFN-γ ELISPOT: PBMC from HLA-A2+ cancer patients (breast cancer, melanoma, renal cell carcinoma) stimulated once with peptide in vitro
Text: The ELISPOT assay was used to quantify peptide specific IFN-γ releasing effector cells as described previously (Andersen et al., 2001, Cancer Res. 61:869-872). In some experiments PBMC were stimulated once in vitro with peptide prior to analysis as described (McCutcheon et al., 1997, J Immunol Methods 210:149-166) to extend the sensitivity of the assay. Briefly, nitrocellulose bottomed 96-well plates (MultiScreen MAIP N45; Millipore) were coated overnight with IFN-γ capture mAb (Mabtech). The wells were washed, blocked by X-vivo medium and the effector cells (PBMC collected and when indicated stimulated as described above) were added in duplicates at different cell concentrations, with or without 10 μM peptide. The plates were incubated overnight. The following day, medium was discarded and the wells were washed prior to addition of the relevant biotinylated secondary Ab (Mabtech). The plates were incubated at room temperature (RT) for 2 hours, washed, and Avidin-enzyme conjugate (AP-Avidin; Calbiochem/Invitrogen Life Technologies) was added to each well. Plates were incubated at RT for 1 hour and the enzyme substrate NBT/BCIP (Invitrogen Life Technologies) was added to each well and incubated at RT for 5-10 min. Upon the emergence of dark purple spots, the reaction was terminated by washing with tap water. The spots were counted using the ImmunoSpot Series 2.0 Analyzer (CTL Analyzers).
(§2) In the present study the ELISPOT was performed according to the guidelines provided by CIP (http://cimt.eu/cimt/files/dl/cip_guidelines.pdf). In some experiments PBMC were stimulated once in vitro with peptide prior to analysis as described to extend the sensitivity of the assay. Briefly, nitrocellulose bottomed 96-well plates (MultiScreen MAIP N45; Millipore) were coated overnight with the relevant antibodies. The wells were washed, blocked by X-vivo medium and the effector cells were added if possible in triplicates otherwise in duplicates at different cell concentrations, with or without peptide. The plates were incubated overnight. The following day, medium was discarded and the wells were washed prior to addition of the relevant biotinylated secondary Ab (Mabtech), followed by the Avidin-enzyme conjugate (AP-Avidin; Calbiochem/Invitrogen Life Technologies) and finally the enzyme substrate NBT/BCIP (Invitrogen Life Technologies). The spots were counted using the ImmunoSpot Series 2.0 Analyzer (CTL Analyzers). Definition of an ELISPOT response was based on the guidelines and recommendations provided by CIP by an empirical or a statistical approach; the former implies setting a threshold to represent a biological response. […] The non-parametric Distribution free resampling (DFR) test gives a way of formally comparing antigen stimulated wells with negative control wells. As a minimum the ELISPOT assay must be performed at least in triplets. Furthermore, the non-parametric unpaired Mann-Whitney test was used to compare PD-L101-specific responders between cancer patients and healthy donors.

[4] = test system: PBMC; experiment: TNF-α ELISPOT; format: cell-based, human; conditions: PBMC from IFN-γ-responding patients, triplicates
Protocol: In addition to determining the presence of specific T-cells using IFNγ as a marker, TNFα was also used as a marker. Thus, an ELISPOT assay was performed essentially as described above with the PDL101 peptide including a stimulation once in vitro with said peptide, except that TNFα antibodies were used in place of IFNγ antibodies. FIG. 2B show the results.
In the present study the ELISPOT was performed according to the guidelines provided by CIP (http://cimt.eu/cimt/files/dl/cip_guidelines.pdf). In some experiments PBMC were stimulated once in vitro with peptide prior to analysis as described to extend the sensitivity of the assay. Briefly, nitrocellulose bottomed 96-well plates (MultiScreen MAIP N45; Millipore) were coated overnight with the relevant antibodies. The wells were washed, blocked by X-vivo medium and the effector cells were added if possible in triplicates otherwise in duplicates at different cell concentrations, with or without peptide. The plates were incubated overnight. The following day, medium was discarded and the wells were washed prior to addition of the relevant biotinylated secondary Ab (Mabtech), followed by the Avidin-enzyme conjugate (AP-Avidin; Calbiochem/Invitrogen Life Technologies) and finally the enzyme substrate NBT/BCIP (Invitrogen Life Technologies). The spots were counted using the ImmunoSpot Series 2.0 Analyzer (CTL Analyzers). […]

[5] = test system: HLA-A2; experiment: HLA peptide exchange technology and ELISA; format: binding, human; conditions: compared with high affinity epitopes HIV-1 pol476-484 and CMV pp65 pos495-503
Text: To evaluate the affinity of the HLA-peptide complex a UV exchange method was used in combination with a sandwich ELISA as previously described (19).

[6] = test system: PD-L101-specific, CD8 T-cells among PBMC; experiment: HLA-A2/PD-L101 tetramer staining by flow cytometry; format: cell-based, human; conditions: for PD-L1-tetramer positive cells: after three in vitro re-stimulations
Protocol: Two PD-L101-specific T cell culture were established. PBMC from a breast cancer patient (CM.21) and from a melanoma (MM.05) patient were stimulated with irradiated PD-L101-loaded autologous DC. The following day IL-7 and IL-12 (PeproTech, London, UK) were added. […] The day after peptide stimulation IL-2 (PeproTech, London, UK) was added.
For multimer/tetramer staining, tetramers coupled with PE and APC were prepared using MHC-peptide exchange technology. […] Dead cell marker 7-AAD-PerCP (BD Bioscience) added prior to FACS analysis.

[7] = test system: PD-L101-specific T-cell bulk culture; experiment: CD107a staining of T-cell bulk culture after peptide addition; format: cell-based, human; conditions: peptide added directly to T-cell bulk culture, FACS
Text: Subsequently, cells were stained with tetramer and surface markers and analysed FACSCANTO II (BD Biosciences, San Jose Calif., USA).

[8] = test system: PBMC; experiment: Granzyme B (GrB) ELISPOT; format: cell-based, human; conditions: PBMC from three melanoma patients (MM.03, MM.53, MM.135)
Protocol: as §2, with “As a minimum the ELISPOT assay must be performed at least in triplets. Furthermore, the non-parametric unpaired Mann-Whitney test was used to compare PD-L101-specific responders between cancer patients and healthy donors.” left out

[9] = test system: autologous matured DC (mDC); experiment: 51Cr-release cytotoxicity assay, autologous matured DC; format: cell-based, human; conditions: mDC transfected by electroporation
Protocol: DC were generated from PBMC by adherence on culture dishes at 37° C. for 1-2 hr. in RPMI-1640. Adherent monocytes were cultured in RPMI-1640 supplemented with 10% fetal calf serum in the presence of IL-4 (250 U/ml) and GM-CSF (1000 U/ml) for 6 days. DC were matured by addition of […] (1000 U/ml), IL-6 (1000 U/ml) TNF-α (1000 U/ml) and PGE2 (1 ug/ml).
as §1
(§3) Stealth siRNA duplex for targeted silencing of PD-L1 and recommended Stealth siRNA negative control duplex for medium GC content were obtained from Invitrogen (Invitrogen, Paisley, UK). The Stealth PD-L1 siRNA duplex consisted of the sense sequence 5′-[…]3′ (SEQ ID NO: 21) and the anti-sense sequence 5′-[…]-3′ (SEQ ID NO:22). For PD-L1 silencing experiments, mDC were transfected with PD-L1 siRNA using electroporation parameters.

[10] = test system: PD-L1 surface expression on mDC; experiment: Flow cytometry of PD-L1 surface expression on mDC; format: cell-based, human; conditions: 24 hr after transfection; 0.05, 0.10 and 0.25 nmol
Protocol: as §3
(§4) Flow cytometry analysis was performed on a FACSCANTO II (BD Biosciences, San Jose Calif., USA) to determine PD-L1 surface expression on mDC before and after siRNA targeted silencing, T2-cells, KIG-BCL and HLA-A2^+ melanoma cell lines (MM1312.07 and MM.909.06) with or without IFN-γ treatment. Cells were washed in PBS/1% BSA and subsequently stained either with FITC- or PE-Cy5-conjugated anti-PD-L1 monoclonal antibody for 30 min on ice in PBS/1% BSA. Nonreactive isotype-matched antibody (BD Biosciences) was used as control. Fluorescence analyses were performed using FACSDiva software (BD Biosciences) and FlowJo software (Tree Star, Ashland Oreg., USA).

[11] = test system: HLA-A2+ melanoma cell line MM.909.06; experiment: 51Cr-release cytotoxicity assay, MM.909.06; format: cell-based; conditions: IFN-γ (100 U/ml) for 2 days
Protocol: as §1

[12] = test system: HLA-A2+ melanoma cell line MM1312.07; experiment: 51Cr-release cytotoxicity assay, MM1312.07; format: cell-based; conditions: IFN-γ (100 U/ml) for 2 days
Protocol: as §1

[13] = test system: PD-L1 surface expression on MM.909.06; experiment: Flow cytometry of PD-L1 surface expression on MM.909.06; format: cell-based; conditions: FACS
Protocol: as §4

[14] = test system: PD-L1 surface expression on MM1312.07; experiment: Flow cytometry of PD-L1 surface expression on MM1312.07; format: cell-based; conditions: FACS
Protocol: as §4

## ILKEPVHGV [HIV-1 pol476-484, reference compound]
[1]
  lysis of peptide- or protein-pulsed T2-cells by PD-L101-specific T-cell culture: no cytotoxic was observed
[2]
  lysis of pulsed KIG-BCL by PD-L101-specific CTL: not killed

## CLGVALTFI (PD-L1 peptide) [PDL111]
[3]
  specific T-cell responses, IFN-γ ELISPOT: responses were detected

## PD-L1 protein: PD-L1 recombinant protein (Sin θ Biological Inc.), full length, used to pulse T2-cells and KIG-BCL
[1]
  lysis of peptide- or protein-pulsed T2-cells by PD-L101-specific T-cell culture: recognized and killed
[2]
  lysis of pulsed KIG-BCL by PD-L101-specific CTL: not recognized

## LLNAFTVTV (PD-L1 peptide) [PD-L101]
[3]
  specific T-cell responses, IFN-γ ELISPOT: Frequent and strong responses were detected
[3]; listed as PDL101
  specific T-cell responses, IFN-γ ELISPOT: responses were detected
[3]; PBMC of responding patients, without peptide stimulation in vitro
  PD-L101-specific cells, IFN-γ ELISPOT directly ex vivo: significant responses; also recorded: readily detectable ex vivo in selected patients
[1]
  lysis of peptide- or protein-pulsed T2-cells by PD-L101-specific T-cell culture: killed; also recorded: lysed T2-cells pulsed with PD-L101 efficiently
[1]; listed as PDL01
  lysis of peptide- or protein-pulsed T2-cells by PD-L101-specific T-cell culture: efficiently presented
[2]
  lysis of pulsed KIG-BCL by PD-L101-specific CTL: recognized
[4]
  TNF-α release by PD-L101-specific cells, TNF-α ELISPOT: released TNF-α
[5]
  binding to HLA-A2: comparable to the high-affinity control epitope
[6]; PBMC from two PD-L101-responding patients (CM.21, MM.05)
  PD-L1-reactive T cells by HLA-A2/PD-L101 tetramer, directly ex vivo: detectable ex vivo in both patients
[6]; T-cells from a breast cancer patient
  PD-L1-tetramer positive cells: 13.52%
[6]; T-cells from a malignant melanoma patient
  PD-L1-tetramer positive cells: 0.17%
[6]; both patients (CM.21, MM.05)
  frequency of PD-L1-specific T-cells by tetramer after one in vitro peptide stimulation: markedly increased the frequency
[7]
  HLA-A2/PD-L101-tetramer+, CD107a+ cells: distinct populations
[8]
  GrB ELISPOT responses (DFR test): could be detected in the three patients; also recorded: significant responses against PD-L101 in two of the patients
  frequency of PD-L101-specific, GrB releasing cells: 100-300 PD-L101-specific, GrB releasing cells per 5×10^5 PBMC

## FMTYWHLLNAFTVTVPKDL (PD-L1 peptide) [PDLong1]
[1]
  lysis of peptide- or protein-pulsed T2-cells by PD-L101-specific T-cell culture: take up, process and present
[2]
  lysis of pulsed KIG-BCL by PD-L101-specific CTL: recognized

## 5′-CCUACUGGCAUUUGCUGAACGCAUU3′ (antisense AAUGCGUUCAGCAAAUGCCAGUAGG; listed as RNA, chemistry not given here) [PD-L1 siRNA]
[9]
  killing of siRNA-transfected mDC by PD-L1-specific CTL cultures: rescued the DC from being killed
[10]
  PD-L1 protein surface expression on mDC after siRNA transfection: reduced the level of PD-L1 protein expression

## VILGAILLCL (PD-L1 peptide) [PDL114]
[3]
  specific T-cell responses, IFN-γ ELISPOT: responses were detected

## VILGAILLCLGVALTFIFRLRKG (PD-L1 peptide) [PDLong2]
[2]
  lysis of pulsed KIG-BCL by PD-L101-specific CTL: not killed

B1: IFN-γ: cytokine added (100 U/ml, 2 days) to melanoma cell lines (protein, UniProt P01579 24-161, looked up)
Interferon gamma: QDPYVKEAENLKKYFNAGHSDVADNGTLFLGILKNWKEESDRKIMQSQIVSFYFKLFKNFKDDQSIQKSVETIKEDMNVKFFNSNKKKRDDFEKLTNYSVTDLNVQRKAIHELIQVMAELSPAAKTGKRKRSQMLFRG
[11]
  effect of IFN-γ treatment on killing of MM.909.06: increased the killing of both melanoma cell lines
[12]
  effect of IFN-γ treatment on killing of MM1312.07: increased the killing of both melanoma cell lines
[13]
  effect of IFN-γ treatment on PD-L1 expression, MM.909.06: increased the expression of PD-L1 in both cell lines
[14]
  effect of IFN-γ treatment on PD-L1 expression, MM1312.07: increased the expression of PD-L1 in both cell lines
